Counter-ions that a name gives are not always drawn.
How the values were obtained:
[1] = test system: human breast cancer cell (MCF-7); assay: cells; conditions: for TGI MCF-7: 72 hours culture with compound, maximum concentration 10 μM; for GI50 / CC50: Homo sapiens, MCF7, 72 h; for GI50: read-out: GI50 MCF-7; for CC50: read-out: LC50 MCF-7
Method: (§1) As positive control substances, 5-fluorouracil (5-FU, Sigma) and gemcitabine hydrochloride (Gemzar, GEM, Eli Lilly Japan K.K.), were tested. The experiment was carried out in accordance with the method carried out by the Commission of Screening for Carcinostatic Agents of the Ministry of Education, Culture, Sports, Science and Technology. With respect to each of experiment groups, the experiment was repeated nine times and an average value was determined. Specifically, each type of cultured cells were seeded into a 96-well microplate at a density of 1×10^4 cells per well (5.0×10^4 cells/mL, 200 μL), the cells were cultured under 5% CO2 at 37° C. for 24 hours, the culture medium was replaced by a culture medium containing the compound (180 μL, the maximum dose of each of the compound was 10 μM, and the final concentration of dimethylsulfoxide (DMSO, Sigma) was adjusted to 0.25%), and the culture was further continued under the same conditions for 72 hours. In this experiment, Dulbecco's modified Eagle's medium (D-MEM, Wako Pure Chemical Industries, Ltd.) was used for the culture of MIA PaCa-2, and Eagle's minimal essential medium (E-MEM, Wako Pure Chemical Industries, Ltd.) was used for the culture of MCF-7.
(§2) After the completion of the culture, alamar blue (20 μL) (Iwaki Glass Co., Ltd.) was added to the culture medium, the resultant mixture was agitated, the culture was then carried out for 3 hours, and fluorescence values were determined on a fluorescence plate reader (Spectra Max M5 (Nihon Molecular Devices Corporation)) at an excitation wavelength of 530 nm and a fluorescence wavelength of 590 nm.
(§3) The fluorescence values immediately before the action of each of the compounds were determined by replacing the culture medium, adding alamar blue (20 μL) immediately after the replacement of the culture medium, agitating the resultant mixture, carrying out the culture for 3 hours, and measuring the fluorescence values on a fluorescence plate reader.
(§4) On the basis of the measurement values thus obtained, Tz (the state of the cultured cells immediately before the action of the compound), GI50 (the concentration of the compound required for inhibiting the proliferation of the cultured cells by 50% relative to the proliferation of the cultured cells in the presence of […]), TGI (the concentration of the compound required for inhibiting the proliferation of the cells in such a manner that the number of the cells became the same as Tz), LC50 (the concentration of the compound required for decreasing the number of the cells to 50% of Tz) and the proliferation rate (the rate of the proliferation of the cultured cells from the time pint of the action of the compound until the time point of the measurement of fluorescence) were determined.
(§5) Due to the problem of the solubility of each of the compounds, the maximum concentration was set at 10 μM.

[2] = test system: human pancreatic cancer cell (MIA PaCa-2); assay: cells; conditions: for TGI MIA PaCa-2: 72 hours culture with compound, maximum concentration 10 μM; for GI50: read-out: GI50 MIA PaCa-2; for proliferation rate: MIA PaCa-2, at a concentration of 10 μM
Method: as §1, §2, §3, §4, §5

For `O=c1[nH]cc(F)c(=O)[nH]1` [5-FU, 5-fluorouracil], the “cytotoxic or cell proliferation inhibition activity” value [1] was “did not exhibit either of these activities”, the “TGI MCF-7” value [1] was >10 µM and the GI50 [1] was > 10 µM. For the same compound, the CC50 [1] was > 10 µM, the “cytotoxic or cell proliferation inhibition activity” value [2] was “did not exhibit either of these activities” and the “TGI MIA PaCa-2” value [2] was >10 µM. For the same compound, the GI50 ([2]; Homo sapiens, MIA PaCa-2, 72 h) was > 10 µM.
In the case of `Nc1ccn([C@@H]2O[C@H](CO)[C@@H](O)C2(F)F)c(=O)n1` [GEM, gemcitabine hydrochloride], the “cytotoxic or cell proliferation inhibition activity” value [1] is reported as “did not exhibit either of these activities”, the “TGI MCF-7” value [1] is reported as >10 µM and the GI50 [1] is reported as > 10 µM. The CC50 [1] was > 10 µM, the “concentration from which no increase in the activity was observed” value ([1]; MCF-7) was ≥ 0.05 µM and the proliferation rate ([1]; MCF-7, at a concentration of 10 ηM) was 59.52%. The “cytotoxic or cell proliferation inhibition activity” value [2] was “exhibited a cytotoxic or cell proliferation inhibition activity”, the “TGI MIA PaCa-2” value [2] was >10 µM and the GI50 ([2]; Homo sapiens, MIA PaCa-2, 72 h) was 0.035 µM. The “concentration from which no increase in the activity was observed” value ([2]; MIA PaCa-2) was ≥ 0.05 µM and the proliferation rate [2] was 26.47%.
For `COCCNS(=O)(=O)c1ccc(OC)c2oc(-c3csc(NC(=O)CCl)n3)cc12` [MU-1497, 2-chloro-N-{4-[7-methoxy-4-(2-methoxyethylsulfamoyl)-benzofuran-2-yl]-thiazol-2-yl}-acetamide], the “concentration at which a cytotoxic or cell proliferation inhibition activity was exhibited” value [1] was ≥ 5.0 µM, the “TGI MCF-7” value [1] was 4.70 µM and the GI50 [1] was 3.82 µM. For the same compound, the CC50 [1] was 5.81 µM, the proliferation rate ([1]; MCF-7, at a concentration of 10 μM (the maximum dose)) was −99.71% and the “concentration at which a cytotoxic or cell proliferation inhibition activity was exhibited” value [2] was ≥ 2.5 µM. For the same compound, the “TGI MIA PaCa-2” value [2] was 6.15 µM, the GI50 ([2]; Homo sapiens, MIA PaCa-2, 72 h) was 4.22 µM and the CC50 ([2]; Homo sapiens, MIA PaCa-2, 72 h, read-out: LC50 MIA PaCa-2) was 8.07 µM. The proliferation rate [2] was −95.39%.

Source: US8563743B2, “Benzofuranone compound and pharmaceutical composition containing same” (Fuso Pharmaceutical Industries, Ltd., priority 2010, dated 2013)
